Here are results for two substances from patent US20200054555A1, “CONTACT LENS WITH FUNCTIONAL COMPONENTS AND PRODUCTS THEREOF” (UNICON OPTICAL CO., LTD., priority 2018, published 2020).

The data set is described as follows: accumulated release of functional components from the contact lens over time, detected by high performance liquid chromatography. It counts as physicochemical. The conditions noted are these: with a cyclic oligosaccharide or cyclic polysaccharide. How it is done: Further, the present invention uses high performance liquid chromatography to detect accumulation of the released functional components of the contact lens with increasing time. It is learned from FIG. 2: the contact lens of the present invention, which is a HEMA lens made up of 38% water by weight and a cyclic oligosaccharide or cyclic polysaccharide, can persistently release Vitamin B12 for a longer period of time (more than 12 hours). It is learned from FIG. 3: the contact lens of the present invention, which is an organosilicon hydrogel contact lens made up of 43% water by weight and a cyclic oligosaccharide or cyclic polysaccharide, can persistently release Vitamin B12 for a longer period of time (more than 12 hours). It is learned from FIG. 4: the contact lens of the present invention, which contains HEMA and 38% water by weight and a cyclic oligosaccharide or cyclic polysaccharide, can persistently release curcumin for a longer period of time (more than 20 hours). It is learned from FIG. 5: the contact lens of the present invention, which contains HEMA and 38% water by weight and a cyclic oligosaccharide or cyclic polysaccharide, can persistently release quercetin in a longer time interval (more than 20 hours). It is learned from FIG. 6: the contact lens of the present invention, which is made from HEMA and 38% water by weight, and a cyclic oligosaccharide or cyclic polysaccharide, can persistently release xanthophyll for a longer period of time (more than 30 hours).

The mark [1] stands for this setting: HEMA contact lens, 38% water by weight, FIG. 2, 4, 5, 6.

Take Vitamin B12: the “period of persistent release of the functional component from the contact lens” value is given as “more than 12 hours” under setting [1] and “more than 12 hours” (organosilicon hydrogel contact lens, 43% water by weight, FIG. 3). Turning to xanthophyll, under setting [1], the “period of persistent release of the functional component from the contact lens” value is given as “more than 30 hours”.
